Results from paper PMC9446078 (Frontiers in Endocrinology, 2022).
pIC50: −log10 of the molar value. Where a name gives a salt, the structure may show the parent alone. Read-outs that look alike come from different tables or passages of the source.

What was measured:
[1] = target: T1, human recombinant aldose reductase (Homo sapiens, UniProt P15121); assay: Aldose reductase inhibition assay (spectrophotometric, glyceraldehyde substrate); assay type: biochemical; conditions: recombinant enzyme, DL-glyceraldehyde substrate, pH 6.2, 37°C
T1 construct: made in house; host or cells: Escherichia coli
Experimental: Recombinant human aldose reductase was purified from bacterial cultures. Enzyme from expression cultures was extracted and purified essentially as described previously ([12]) with the exception that affinity chromatography over AffiGel Blue (Bio-Rad) was used as a final purification step.
AR activity was assayed according to the method described in the literature ([13]). The assay mixture in 1 ml contained 50 μM potassium phosphate buffer, pH 6.2, 0.4 mM lithium sulfate, 5 μM 2-mercapto ethanol, 10 μM DL-glyceraldehyde, 0.1 μM NADPH, and enzyme preparation (recombinant enzyme). Appropriate blanks were employed for corrections. The assay mixture was incubated at 37°C and initiated by the addition of NADPH at 37°C. The change in absorbance at 340 nm due to NADPH oxidation was followed in a Cary Bio 100 spectrophotometer.
The percent of inhibition with a test compound was calculated considering that the AR activity in the absence of an inhibitor was 100%. The concentration of the test sample giving 50% inhibition (IC50) was then estimated.

bovine serum albumin = assay: Inhibition of advanced glycation end products (fluorometric, glucose + bovine serum albumin); assay type: biochemical; conditions: control mean 7.5
Experimental: Fluorescence was measured at the excitation wavelength of 360 nm and the emission wavelength of 440 nm. Afterwards, the samples were cooled to room temperature.

[2] = Toxicokinetics in miniature swine; assay type: in vivo, Hanford miniature swine; conditions: for Cmax: read-out: Cmax; for Tmax: read-out: Tmax
Experimental: A total of 40 Hanford miniature swine (20 male and 20 female) divided into four treatment groups were used for this study. A 12-week topical application of Galnobax 20% was carried out in the miniature swine wound healing model with twice-daily dosing. Six wounds (10 cm^2 each) of partial thickness were created on the dorsal region of all animals. Four wounds of each animal received twice-daily topical doses of either the vehicle or Galnobax gel, and the remaining two sites served as untreated comparative control wounds. Each group has four male and female miniature swine for the assessments and one each for the recovery period as given in Table 1 . Safety parameters in terms of ECG, clinical pathology, wound site evaluation, and toxicokinetics were performed during the study.

[3] = both sexes, Hanford, pig, blood, topical or ocular, 400 mg, Day 1, Group 2 swine, topical 400 mg Galnobax Gel, mean
[4] = both sexes, Hanford, pig, blood, topical or ocular, 400 mg, Week 12, Group 2 swine, topical 400 mg Galnobax Gel BID, mean

In the case of `COC(=O)CCc1ccc(OCC(O)CNC(C)C)cc1` (stereo not shown) [Esmolol hydrochloride], the pIC50 [1] was 3.82, the “Fluorescence measurement, mean” value (bovine serum albumin; 500 µM) was 5 and the “Fluorescence measurement, mean” value (bovine serum albumin; 1 mM) was 2.6. For the same molecule, the “Fluorescence measurement, mean” value (bovine serum albumin; 1 mM, listed as esmolol) was 2.6 ± 1.7, the concentration at 8 hr ([2]; both sexes, Hanford, pig (miniature swine), blood, after first topical dose of Galnobax Gel 400 mg, below the quantitation limit, read-out: blood concentration by the second daily dose (8 hr)) was less than 5 ng/mL and the AUC(0-t) [2, 3] was 18.7 ng·h/mL. For the same molecule, the Cmax [2, 3] was 30.3 ng/mL, the Tmax [2, 3] was 18 min and the AUC(0-t) [2, 4] was 17.5 ng·h/mL. It also gave an AUC from 0 to 8 h ([2]; both sexes, Hanford, pig, blood, topical or ocular, 400 mg, Week 12, Group 2 swine, topical 400 mg Galnobax Gel BID, mean, read-out: AUC0-8) of 35.4 ng·h/mL, a Cmax [2, 4] of 140 ng/mL and a Tmax [2, 4] of 22.8 min. The “accumulation after 12 weeks of twice-daily topical application” value ([2]; miniature swine, topical Galnobax) was “no apparent accumulation”.
